Our source for the Activity values is ChEMBL document CHEMBL2074344, “Active efflux of the 5-HT(1A) receptor agonist flesinoxan via P-glycoprotein at the blood-brain barrier” (Eur J Pharm Sci, 2001).

The target of series [1] is ATP-dependent translocase ABCB1 (Homo sapiens, UniProt P08183). Kind of series: TP_TRANSPORTER: transepithelial transport (basal to apical) in MDR1-expressing LLC-PK1 cells. It counts as functional, cell-based. Conditions: pig.
In series [2] the target is ATP-dependent translocase ABCB1 (Mus musculus, UniProt P21447). Kind of series: TP_TRANSPORTER: increase in brain concentration in mdr1a(-/-) mouse. Format: functional, organism-based. The note with it: in vivo.
Chain of ATP-dependent translocase ABCB1 (Mus musculus, UniProt P21447) (P21447 whole entry): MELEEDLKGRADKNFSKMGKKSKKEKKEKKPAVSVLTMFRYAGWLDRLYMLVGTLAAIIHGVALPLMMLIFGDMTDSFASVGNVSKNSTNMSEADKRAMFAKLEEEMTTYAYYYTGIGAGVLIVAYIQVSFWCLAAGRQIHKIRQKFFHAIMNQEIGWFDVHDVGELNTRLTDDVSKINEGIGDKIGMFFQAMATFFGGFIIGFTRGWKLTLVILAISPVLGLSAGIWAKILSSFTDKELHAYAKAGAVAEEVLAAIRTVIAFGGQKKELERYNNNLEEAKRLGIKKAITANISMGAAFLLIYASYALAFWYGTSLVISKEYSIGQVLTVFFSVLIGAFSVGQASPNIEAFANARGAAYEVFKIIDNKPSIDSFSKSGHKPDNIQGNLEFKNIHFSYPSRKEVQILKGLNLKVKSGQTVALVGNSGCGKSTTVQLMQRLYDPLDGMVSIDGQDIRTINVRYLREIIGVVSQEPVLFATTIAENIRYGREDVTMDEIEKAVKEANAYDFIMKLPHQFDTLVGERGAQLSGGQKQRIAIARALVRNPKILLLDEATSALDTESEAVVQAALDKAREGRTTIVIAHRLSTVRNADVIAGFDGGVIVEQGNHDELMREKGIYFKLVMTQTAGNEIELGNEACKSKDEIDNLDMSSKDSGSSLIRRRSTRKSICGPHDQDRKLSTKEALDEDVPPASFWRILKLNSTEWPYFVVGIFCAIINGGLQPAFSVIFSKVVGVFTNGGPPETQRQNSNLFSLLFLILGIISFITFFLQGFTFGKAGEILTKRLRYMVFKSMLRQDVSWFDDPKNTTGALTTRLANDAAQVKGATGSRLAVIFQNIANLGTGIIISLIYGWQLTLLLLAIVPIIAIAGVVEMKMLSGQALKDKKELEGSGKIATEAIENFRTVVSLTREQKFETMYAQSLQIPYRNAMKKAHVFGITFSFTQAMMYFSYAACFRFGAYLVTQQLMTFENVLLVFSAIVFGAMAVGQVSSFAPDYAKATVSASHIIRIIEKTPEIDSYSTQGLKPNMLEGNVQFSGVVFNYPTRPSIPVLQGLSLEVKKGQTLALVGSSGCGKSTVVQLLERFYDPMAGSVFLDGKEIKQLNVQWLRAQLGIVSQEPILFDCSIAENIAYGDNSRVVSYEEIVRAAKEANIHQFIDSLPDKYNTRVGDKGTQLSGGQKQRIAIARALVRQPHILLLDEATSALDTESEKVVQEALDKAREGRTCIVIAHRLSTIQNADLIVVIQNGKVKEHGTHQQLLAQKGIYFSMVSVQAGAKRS

Structures are written as SMILES.

Chain of ATP-dependent translocase ABCB1 (Homo sapiens, UniProt P08183) (P08183 whole entry): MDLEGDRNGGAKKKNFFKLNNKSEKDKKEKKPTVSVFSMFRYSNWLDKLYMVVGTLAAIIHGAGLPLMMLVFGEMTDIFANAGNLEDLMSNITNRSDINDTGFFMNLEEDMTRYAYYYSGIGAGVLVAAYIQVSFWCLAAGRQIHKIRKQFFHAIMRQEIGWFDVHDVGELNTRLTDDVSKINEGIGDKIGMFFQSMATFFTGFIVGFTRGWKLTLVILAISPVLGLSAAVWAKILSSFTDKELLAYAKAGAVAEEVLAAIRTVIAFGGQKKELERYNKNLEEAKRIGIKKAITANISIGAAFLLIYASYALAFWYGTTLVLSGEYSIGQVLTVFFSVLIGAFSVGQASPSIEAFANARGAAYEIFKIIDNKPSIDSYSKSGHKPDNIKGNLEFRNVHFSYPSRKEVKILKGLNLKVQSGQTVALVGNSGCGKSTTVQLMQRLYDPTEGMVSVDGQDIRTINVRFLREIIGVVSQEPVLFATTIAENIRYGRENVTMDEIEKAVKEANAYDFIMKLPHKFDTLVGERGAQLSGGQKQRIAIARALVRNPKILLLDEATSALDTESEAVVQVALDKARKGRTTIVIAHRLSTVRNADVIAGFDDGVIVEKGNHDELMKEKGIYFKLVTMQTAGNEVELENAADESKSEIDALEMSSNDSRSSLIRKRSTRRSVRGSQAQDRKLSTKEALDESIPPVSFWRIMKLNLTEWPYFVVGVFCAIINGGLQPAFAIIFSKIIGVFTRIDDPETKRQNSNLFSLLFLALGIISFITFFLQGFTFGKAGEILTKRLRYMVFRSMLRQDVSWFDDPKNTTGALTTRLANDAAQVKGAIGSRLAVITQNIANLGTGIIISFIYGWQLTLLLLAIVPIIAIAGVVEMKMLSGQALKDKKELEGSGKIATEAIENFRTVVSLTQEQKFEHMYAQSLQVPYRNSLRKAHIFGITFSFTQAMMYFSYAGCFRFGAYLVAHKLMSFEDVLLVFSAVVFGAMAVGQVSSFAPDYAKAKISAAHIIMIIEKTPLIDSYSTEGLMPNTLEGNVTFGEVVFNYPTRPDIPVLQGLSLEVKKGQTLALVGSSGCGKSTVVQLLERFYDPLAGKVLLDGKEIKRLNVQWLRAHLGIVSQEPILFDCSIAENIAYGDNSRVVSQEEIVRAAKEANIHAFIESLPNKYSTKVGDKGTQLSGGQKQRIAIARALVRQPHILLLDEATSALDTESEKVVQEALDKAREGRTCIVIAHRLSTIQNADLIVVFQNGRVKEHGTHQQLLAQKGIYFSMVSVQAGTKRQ

In the case of `O=C(NCCN1CCN(c2cccc3c2OC[C@H](CO)O3)CC1)c1ccc(F)cc1` [FLESINOXAN], the Activity result in series [1] and in series [2] was “substrate [+]” each time.
